Test results reported in PubChem BioAssay (NCI).
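Growth conditions: 96-well plates. Treatment: test compound, 48 hours, 5 concentrations. Analysis: linear interpolation between bracketing concentrations; unreached endpoints set to highest concentration. At the GI50, growth is halved. TGI denotes the concentration required for complete inhibition of growth.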

Experiments:
Assay in all cases: NCI-60 cell line screen, 48 h
SK-OV-3 ovarian = tested on: SK-OV-3 ovarian
IGROV1 ovarian = tested on: IGROV1 ovarian
HL-60(TB) leukemia = tested on: HL-60(TB) leukemia
OVCAR-3 ovarian = tested on: OVCAR-3 ovarian
CCRF-CEM leukemia = tested on: CCRF-CEM leukemia
SK-MEL-28 melanoma = tested on: SK-MEL-28 melanoma
NCI-H460 lung = tested on: NCI-H460 lung
COLO 205 colon = tested on: COLO 205 colon

| Structure (SMILES) | GI50 (SK-OV-3 ovarian) [µM] | TGI (SK-OV-3 ovarian) [µM] | GI50 (IGROV1 ovarian) [µM] | TGI (IGROV1 ovarian) [µM] | GI50 (HL-60(TB) leukemia) [nM] | TGI (HL-60(TB) leukemia) [µM] | GI50 (OVCAR-3 ovarian) [nM] | TGI (OVCAR-3 ovarian) [µM] | GI50 (CCRF-CEM leukemia) [nM] | TGI (CCRF-CEM leukemia) [µM] | GI50 (SK-MEL-28 melanoma) [µM] | TGI (SK-MEL-28 melanoma) [µM] | GI50 (NCI-H460 lung) [nM] | TGI (NCI-H460 lung) [µM] | GI50 (COLO 205 colon) [nM] | TGI (COLO 205 colon) [µM] |
| --- | --- | --- | --- | --- | --- | --- | --- | --- | --- | --- | --- | --- | --- | --- | --- | --- |
| Cc1ccc2c(c1)Sc1c(ccc3ccccc13)N2 | > 100 | > 100 | 6.48 | > 100 | 34200 | > 100 | > 100000 | > 100 | 12400 | > 100 | > 100 | > 100 | 5370 | > 100 | 76100 | > 100 |
| NC12CC3CC(C1)CC(C(=O)O)(C3)C2 | – | > 100 | – | > 100 | – | > 100 | – | > 100 | – | > 100 | – | > 100 | – | > 100 | – | – |
| O=C(Nc1ccncc1)C(=O)c1cn(S(=O)(=O)c2cccc(F)c2)c2ccccc12 | 20.3 | 76.5 | 8.33 | > 100 | 3360 | > 100 | 2650 | 12.5 | 2580 | > 100 | 4.74 | 60.5 | 13000 | > 100 | 32400 | > 100 |
| O=[N+]([O-])c1ccc(C=NC2CCCCC2)cc1 | – | > 100 | – | > 100 | – | > 100 | – | > 100 | – | > 100 | – | > 100 | – | > 100 | – | > 100 |
| CCOC1Oc2ccc(C)cc2C(=O)/C1=C\Nc1ccc(C(N)=O)cc1 (stereo unspecified) | 21.1 | > 100 | 18.9 | 72.5 | – | – | 18800 | 46.8 | 20300 | 65.3 | 51.7 | > 100 | 33300 | > 100 | 8520 | > 100 |
| CCCC1N2CCCCC2[C@@H]2c3[nH]c4ccccc4c3CCN12 (stereo partly specified) | – | > 100 | – | > 100 | – | > 100 | – | > 100 | – | > 100 | – | > 100 | – | > 100 | – | > 100 |
| CN(C)CCNC(=O)c1cccc2ccc(-c3ccncc3)nc12 | – | 6.95 | – | 8.37 | – | 7.59 | – | 14.4 | – | 15.5 | – | 17.5 | – | – | – | 7.26 |
| C#CCNC(=O)c1cccc2c1cc(C)n2-c1nc2c(c(NCc3ccccc3)n1)CCCC2 | 0.056 | 0.232 | 0.0276 | 0.102 | 29 | 0.191 | 23.6 | 0.057 | 235 | 0.945 | 0.035 | 0.123 | 23.3 | 0.0723 | 19.1 | 0.0382 |
| Cc1cc(-c2cnn3c(NCC4CC(C)(O)C4)cc(Oc4cccnc4)nc23)ccc1C(=O)NC1CC1 (stereo unspecified) | 2.69 | > 100 | 0.992 | > 100 | 1250 | > 100 | > 100000 | > 100 | 259 | > 100 | – | – | 585 | > 100 | 1060 | > 100 |
| C=C(C[C@](O)(C(=O)/C=C/c1ccc(Cl)cc1)C(=O)OC)c1ccccc1 | 11.1 | 23.1 | – | – | 2720 | 7.83 | 1560 | 3.08 | 2860 | 13 | 2.04 | 4.98 | 2440 | 6.31 | 2000 | 4.36 |
| CC(C)(CO)N1CCN(C(=S)Nc2ccccc2)CC1 | – | > 100 | – | > 100 | – | – | – | > 100 | – | – | – | > 100 | – | > 100 | – | > 100 |
| Cc1c(C(=O)C/C(=N/NC(=O)C[N+](C)(C)C)C(=O)Nc2ccc(Cl)cc2)[n+](=O)c2ccccc2n1O | – | – | – | > 100 | – | > 100 | – | > 100 | – | > 100 | – | > 100 | – | > 100 | – | > 100 |
| COCCCNC(=O)C1C(=O)C(=O)N(CCCOC)C1=O (stereo unspecified) | – | > 100 | – | > 100 | – | > 100 | – | > 100 | – | > 100 | – | > 100 | – | – | – | > 100 |
| O=C(O)C(CS)Nc1c2ccccc2nc2ccccc12 (stereo unspecified) | – | > 100 | – | > 100 | – | > 100 | – | > 100 | – | > 100 | – | > 100 | – | > 100 | – | > 100 |
| O=C1c2ccccc2C(=O)N1CCc1ncc[nH]1 | – | – | – | > 100 | – | – | – | > 100 | – | > 100 | – | > 100 | – | > 100 | – | > 100 |
| C[C@@H]1OC(=O)N2CCCC(=C3SCCCS3)C12 (stereo partly specified) | – | > 100 | – | > 100 | – | – | – | > 100 | – | > 100 | – | > 100 | – | > 100 | – | > 100 |
| C/C(O)=C(\N=O)C(=O)Nc1ccc(Cl)cc1Cl | – | > 100 | – | > 100 | – | > 100 | – | > 100 | – | > 100 | – | > 100 | – | > 100 | – | > 100 |
| O=C(O)CCNC1CCCCC1 | > 100 | > 100 | > 100 | > 100 | > 100000 | > 100 | > 100000 | > 100 | > 100000 | > 100 | > 100 | > 100 | > 100000 | > 100 | > 100000 | > 100 |
| CCN(CC)CCCC(C)Nc1c2ccc(Cl)cc2nc2ccc(O)cc12 (stereo unspecified) | 3.12 | 16 | – | – | 2060 | 6.25 | 2050 | 5.93 | 3480 | 28.9 | 1.6 | 2.98 | 1380 | 3.84 | 1170 | 2.63 |
| N#C/C(=C\c1ccc2ccccc2c1)c1ccccc1 | – | 70.7 | – | 37.3 | – | – | – | 28.3 | – | 78.1 | – | > 100 | – | 34 | – | 35.9 |
